Test results from PMC13056558 (Nature Microbiology, 2026).

Legend:
thiol peroxidase HpTpx [1] = target: T1, thiol peroxidase HpTpx (Helicobacter pylori, UniProt O25151); experiment: Gel-based in situ competitive labelling against Metro-P3 (ABPP); type: cell-based; design: gene tpx; endogenous, H. pylori 26695 live cells
T1 sequence (O25151 2-166): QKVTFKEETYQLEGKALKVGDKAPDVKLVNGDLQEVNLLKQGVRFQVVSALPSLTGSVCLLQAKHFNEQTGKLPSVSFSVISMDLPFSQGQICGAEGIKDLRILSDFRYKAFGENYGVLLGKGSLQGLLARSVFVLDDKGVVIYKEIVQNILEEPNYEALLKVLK

[2] = target: T2, 60 kDa chaperonin HpGroEL (Helicobacter pylori, UniProt P42383); experiment: as above; type: cell-based; design: gene groEL; endogenous, H. pylori 26695 live cells
thiol peroxidase HpTpx [3] = target: T1, thiol peroxidase HpTpx; experiment: Intact protein MS and peroxidase assay of modified enzyme; EC50 is from in situ competition with Metro-P3 in H. pylori; type: cell-based; design: gene tpx; recombinant HpTpx wild type, modified during anaerobic expression in E. coli
thiol peroxidase HpTpx [4] = target: T3, thiol peroxidase HpTpx (Helicobacter pylori, UniProt O25151, C94A); experiment: X-ray co-crystal structure, […] Å (reduced amine form Metro*); type: binding
T3 construct: gene tpx

[5] = target: T2, 60 kDa chaperonin HpGroEL; experiment: Intact protein MS and malachite green ATPase assay of modified enzyme; EC50 is from in situ competition with Metro-P3 in H. pylori; type: cell-based; design: gene groEL; recombinant HpGroEL, modified during anaerobic expression in E. coli
thiol peroxidase HpTpx [6] = target: T1, thiol peroxidase HpTpx; experiment: In situ ABPP labelling ([…]), gel and LC-MS/MS, competed by Metro; type: cell-based; design: gene tpx; endogenous, H. pylori 26695 live cells
[7] = target: T2, 60 kDa chaperonin HpGroEL; experiment: as above; type: cell-based; design: gene groEL; endogenous, H. pylori 26695 live cells

T2 sequence (P42383 whole entry): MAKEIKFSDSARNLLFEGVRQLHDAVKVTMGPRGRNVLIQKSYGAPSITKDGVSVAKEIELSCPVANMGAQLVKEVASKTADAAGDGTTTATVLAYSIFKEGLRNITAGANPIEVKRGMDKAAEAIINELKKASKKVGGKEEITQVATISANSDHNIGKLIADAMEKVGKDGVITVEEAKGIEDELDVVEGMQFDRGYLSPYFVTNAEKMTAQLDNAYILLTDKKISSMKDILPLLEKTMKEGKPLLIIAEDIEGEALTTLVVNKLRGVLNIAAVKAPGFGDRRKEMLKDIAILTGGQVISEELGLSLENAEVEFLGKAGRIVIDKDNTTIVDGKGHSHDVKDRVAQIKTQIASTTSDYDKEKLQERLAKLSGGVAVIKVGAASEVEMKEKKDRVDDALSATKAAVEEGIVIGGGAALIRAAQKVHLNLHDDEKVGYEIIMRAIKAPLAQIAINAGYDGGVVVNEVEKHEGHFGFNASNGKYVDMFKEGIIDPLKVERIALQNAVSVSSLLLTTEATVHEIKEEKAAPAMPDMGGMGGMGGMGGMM

## CCOCCn1c([N+](=O)[O-])cnc1C [MF-03]
Thiol peroxidase HpTpx [1]
  EC50: 17 µM
[2]
  EC50: 40 µM

## Cc1ncc([N+](=O)[O-])n1CCO [Metro, Metronidazole]
Thiol peroxidase HpTpx [3]
  EC50: 250 µM
Thiol peroxidase HpTpx [4]
  X-ray co-crystal structure, 1.75 Å (reduced amine form Metro*): forms an irreversible thioether bond with the CP residue
[5]
  EC50: 24 µM

## C#CCOCCn1c([N+](=O)[O-])cnc1C [Metro-P1]
Thiol peroxidase HpTpx [6]
  In situ ABPP labelling (1 μM), gel and LC-MS/MS, competed by Metro: 18-kDa HpTpx band was solely diminished in case of ether derivatives Metro-P1 and Metro-P3 upon Metro pre-incubation
[7]
  In situ ABPP labelling (1 μM), gel and LC-MS/MS, competed by Metro: a 60-kDa band decreased for all three probes
